# Measured values published in patent US20250154154A1 (Relay Binney Street, 2nd Floor, priority 2020, published 2025).
# Target: SRC (Homo sapiens, UniProt P12931)
# Experiment: SRC Biochemical Assay Protocol (microfluidic mobility shift assay, FLPeptide4 substrate)
# Experimental: SRC Biochemical Assay Protocol
# Src biochemical kinase activity was measured using a surrogate fluorescent peptide substrate [FLPeptide4; 5-FAM-EGIYGVLFKKK-CONH2 (PerkinElmer Cat. No. 760348)] with a microfluidic mobility shift assay. Reactions were performed in 384-well flat bottom polystyrene microplates (Corning Cat. No. 3570) at a final volume of 20 μL in 50 mM HEPES pH 7.4, 1 mM EGTA, 10 mM MgCl2, 0.01% Brij-35, 2 mM DTT, 0.05% BSA, 1% DMSO. Inhibition experiments were performed with compounds of the invention varying from 0.0017-100 μM with 0.26 nM SRC, 1.5 μM FLPeptide4, and 50 μM ATP. Specifically, 15 μl 1.3× mixtures of SRC+FLPeptide4+compounds were preincubated for 30 minutes at room temperature followed by addition of 5 μL 4×ATP. Reactions were carried out for 90 minutes then quenched with 40 μl 500 mM EDTA. Phosphorylated peptide product was measured with a mobility shift assay using a LabChip® EZ Reader system (PerkinElmer Cat. No. 122919). Inhibition ratios were calculated relative to neutral controls and IC50 values were obtained from dose response data fitted to a 4-parameter logistic model.
# SRC, sequence (P12931 whole entry, species assumed): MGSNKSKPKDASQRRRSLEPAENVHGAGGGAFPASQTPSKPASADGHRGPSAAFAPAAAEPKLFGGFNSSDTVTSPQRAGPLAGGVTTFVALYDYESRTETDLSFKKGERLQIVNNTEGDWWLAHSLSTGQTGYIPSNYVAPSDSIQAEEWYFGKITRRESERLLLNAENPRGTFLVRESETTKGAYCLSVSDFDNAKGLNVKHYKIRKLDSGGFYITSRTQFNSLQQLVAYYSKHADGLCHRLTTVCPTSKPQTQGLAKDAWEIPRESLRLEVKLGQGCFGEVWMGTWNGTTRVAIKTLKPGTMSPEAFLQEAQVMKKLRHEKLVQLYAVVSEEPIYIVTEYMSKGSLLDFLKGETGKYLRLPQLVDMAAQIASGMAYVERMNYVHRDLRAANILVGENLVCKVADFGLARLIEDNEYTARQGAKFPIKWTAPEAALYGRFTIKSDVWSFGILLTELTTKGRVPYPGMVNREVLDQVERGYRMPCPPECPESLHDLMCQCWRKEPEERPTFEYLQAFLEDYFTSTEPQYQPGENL
row,Structure (SMILES),IC50 [nM]
1,CC(Cl)C(=O)N1CCC(C#Cc2c(-c3ccc(Oc4ccccc4)cc3)c3c(N)ncnc3n2C(C)C)CC1 (stereo not shown) [Example I-39],10 to 1000
2,C=CC(=O)N1CCC(O)(C#Cc2c(-c3ccc(Oc4ccccc4)c(C#N)c3)c3c(N)ncnc3n2C)CC1 [III-54],1000 to 10000
3,C=CC(=O)N1CC(N2CCC(C#Cc3c(-c4ccc(Nc5ccccn5)cc4)c4c(N)ncnc4n3C(C)C)CC2)C1 [Example I-46],10 to 1000
4,CN(C)C/C=C/C(=O)Nc1ncnc2c1c(-c1ccc(Oc3ccccc3)cc1)c(C#CC1CNC1)n2C1CCOC1 (stereo not shown) [III-9],10 to 1000
5,C=CC(=O)NCC#Cc1c(-c2ccc(Oc3ncccn3)c(OC)c2)c2c(N)ncnc2n1C [III-94],1000 to 10000
6,C=CC(=O)N1CCC(N2CC(C#Cc3c(-c4ccc(Oc5cccc(C)n5)c5c4OCO5)c4c(N)ncnc4n3C)C2)CC1 [III-90],10 to 1000
7,C=CC(=O)N1CC2C(C#Cc3c(-c4ccc(Oc5ccccc5)cc4)c4c(N)ncnc4n3C)C2C1 (stereo not shown) [III-52],10 to 1000
8,"CC(C)n1c(C#CC2CCN(C)CC2)c(-c2ccc(Oc3ccccc3)cc2)c2c(N)ncnc21 [II-141, 7-isopropyl-6-((1-methylpiperidin-4-yl)ethynyl)-5-(4-phenoxyphenyl)-7H-pyrrolo[2,3-d]pyrimidin-4-amine]",≤ 10
9,"CC(C)n1c(C#CC2CNC2)c(-c2ccc(Oc3ccccc3)cc2)c2c(N)ncnc21 [II-152, 6-(azetidin-3-ylethynyl)-7-isopropyl-5-(4-phenoxyphenyl)-7H-pyrrolo[2,3-d]pyrimidin-4-amine]",≤ 10
10,Cn1c(C#CC2CN(C(=O)/C=C/CN3CC(O)C3)C2)c(-c2ccc(Oc3ccccc3)cc2)c2c(N)ncnc21 [III-78],10 to 1000
11,"Cn1c(C#CC2CCNCC2)c(-c2ccc(Oc3ccccc3)cc2)c2c(N)ncnc21 [II-159, 7-methyl-5-(4-phenoxyphenyl)-6-(piperidin-4-ylethynyl)-7H-pyrrolo[2,3-d]pyrimidin-4-amine]",10 to 1000
12,C=CC(=O)N1CCC(N2CC(C#Cc3c(-c4ccc(Oc5cccc(C)n5)c(OC)c4)c4c(N)ncnc4n3C3CCOC3)C2)CC1 (stereo not shown) [III-91],10 to 1000
13,CN(C)C/C=C/C(=O)N1CCC(C#Cc2c(-c3ccc(Oc4ccccc4)cc3)c3c(N)ncnc3n2C)CC1 [III-14],10 to 1000
14,C=CC(=O)N1CCC(N2CC(C#Cc3c(-c4ccc(Oc5ccccc5)c5c4OCO5)c4c(N)ncnc4n3C)C2)CC1 [III-85],≤ 10
15,C=CC(=O)N1CCC(N2CC(C#Cc3c(-c4ccc(Oc5ccccc5)cc4)c4c(N)ncnc4n3[C@H]3C[C@H](O)C3)C2)CC1 [III-68],10 to 1000
16,C=CC(=O)N1CC[C@@H](N2CC(C#Cc3c(-c4ccc(Oc5ccccc5)cc4)c4c(N)ncnc4n3C)C2)[C@H](C)C1 [III-66],10 to 1000
17,Cn1c(C#CC2(O)CCN(C(=O)/C=C/CN3CCOCC3)CC2)c(-c2ccc(Oc3ccccc3)cc2)c2c(N)ncnc21 [III-39],10 to 1000
18,C=CC(=O)N1CCC(N2CC(C#Cc3c(-c4ccc(Oc5ccccc5)cc4)c4c(N)ncnc4n3C)C2)C[C@H]1CO (stereo partly shown) [III-64],10 to 1000
19,CN(C)C/C=C/C(=O)N1CC2(C1)CC(O)(C#Cc1c(-c3ccc(Oc4ccccc4)cc3)c3c(N)ncnc3n1C)C2 [III-26],10 to 1000
20,"Nc1ncnc2c1c(-c1ccc(Oc3ccccc3)cc1)c(C#CC1CCNCC1)n2C1CCOC1 (stereo not shown) [II-155, 5-(4-phenoxyphenyl)-6-(piperidin-4-ylethynyl)-7-(tetrahydrofuran-3-yl)-7H-pyrrolo[2,3-d]pyrimidin-4-amine]",≤ 10

row,Structure (SMILES),IC50 [nM]
1,C=CC(=O)N1CCC(C#Cc2c(-c3ccc(Oc4ccccc4)cc3)c3c(N)ncnc3n2CCCN(C)C)C1 (stereo not shown) [III-15],10 to 1000
2,C=CS(=O)(=O)N1CC(C#Cc2c(-c3ccc(Oc4ccccc4)cc3)c3c(N)ncnc3n2C(C)C)C1 [Example I-17],≤ 10
3,C=CC(=O)N1CCC(C#Cc2c(-c3ccc(Nc4ccccn4)cc3)c3c(N)ncnc3n2C(C)C)CC1 [Example I-9],10 to 1000
4,C=CC(=O)N1CCC(N2CC(C#Cc3c(-c4ccc(Oc5ccccc5)cc4)c4c(N)ncnc4n3[C@H]3C[C@@H](O)C3)C2)CC1 [III-70],≤ 10
5,C=CC(=O)N1CCC(C#Cc2c(-c3ccc(Oc4cccc(Cl)c4)cc3)c3c(N)ncnc3n2C(C)C)CC1 [Example I-36],10 to 1000
6,CC(CO)n1c(C#CC2(O)CCN(C(=O)/C=C/CN(C)C)CC2)c(-c2ccc(Oc3ccccc3)cc2)c2c(N)ncnc21 (stereo not shown) [III-27],10 to 1000
7,CC(C)n1c(C#Cc2cnn(C)c2)c(-c2ccc(Oc3ccccc3)cc2)c2c(N)ncnc21 [III-7],10 to 1000
8,C=CS(=O)(=O)N1CCC(C#Cc2c(-c3ccc(Oc4ccccc4)cc3)c3c(N)ncnc3n2C(C)C)CC1 [Example I-37],≤ 10
9,C=CC(=O)N1CCC(C#Cc2c(-c3ccc(Oc4cccc(F)c4)cc3)c3c(N)ncnc3n2C(C)C)CC1 [Example I-28],10 to 1000
10,C=C(C)C(=O)N1CCC(C#Cc2c(-c3ccc(Oc4ccccc4)cc3)c3c(N)ncnc3n2C)CC1 [III-40],10 to 1000
11,C=CC(=O)N1CCC(C#Cc2c(-c3ccc(Oc4ccccc4)cc3)c3c(N)ncnc3n2C(C)CO)C1 (stereo not shown) [III-33],10 to 1000
12,C=CC(=O)N1CCC(N2CC(C#Cc3c(-c4ccc(Oc5ccccc5)cc4)c4c(N)ncnc4n3C)C2)C[C@H]1C (stereo partly shown) [III-46],10 to 1000
13,CN(C)C/C=C/C(=O)N1CC(C#Cc2c(-c3ccc(Oc4ccccc4)cc3)c3c(N)ncnc3n2C)C1 [III-84],10 to 1000
14,C=CC(=O)N1CCC(N2CC(C#Cc3c(-c4ccc(Oc5ccccc5)cc4)c4c(N)ncnc4n3C3CCOC3)C2)CC1 (stereo not shown) [III-53],≤ 10
15,CC(C)n1c(C#CC2CCN(C(=O)/C=C/CN(C)C)C2)c(-c2ccc(Oc3ccccc3)cc2)c2c(N)ncnc21 (stereo not shown) [III-12],≤ 10
16,C=CC(=O)N1CC[C@H](N2CC(C#Cc3c(-c4ccc(Oc5ccccc5)cc4)c4c(N)ncnc4n3C)C2)[C@H](C)C1 [III-65],10 to 1000
17,C=CS(=O)(=O)N1CC(N2CCC(C#Cc3c(-c4ccc(Oc5ccccc5)cc4)c4c(N)ncnc4n3C(C)C)CC2)C1 [Example I-53],≤ 10
18,"COC(=O)C(C)n1c(C#CC2CCNCC2)c(-c2ccc(Oc3ccccc3)cc2)c2c(N)ncnc21 (stereo not shown) [II-154, methyl 2-(4-amino-5-(4-phenoxyphenyl)-6-(piperidin-4-ylethynyl)-7H-pyrrolo[2,3-d]pyrimidin-7-yl)propanoate]",10 to 1000
19,C=CC(=O)N1CCC(N2CC(C#Cc3c(-c4ccc(Oc5cccc(C)n5)cc4)c4c(N)ncnc4n3C)C2)CC1 [III-75],10 to 1000
20,Cn1c(C#CC2CN(C(=O)/C=C/CN3CCC3)C2)c(-c2ccc(Oc3ccccc3)cc2)c2c(N)ncnc21 [III-81],10 to 1000

row,Structure (SMILES),IC50 [nM]
1,Cn1c(C#CC2CC3(C2)CN(C(=O)/C=C/CN2CCOCC2)C3)c(-c2ccc(Oc3ccccc3)cc2)c2c(N)ncnc21 [III-71],10 to 1000
2,CC(CO)n1c(C#CC2CCN(C(=O)/C=C/CN(C)C)CC2)c(-c2ccc(Oc3ccccc3)cc2)c2c(N)ncnc21 (stereo not shown) [III-31],10 to 1000
3,C=CC(=O)N1CC[C@H](C#Cc2c(-c3ccc(Oc4ccccc4)cc3)c3c(N)ncnc3n2C)C[C@@H]1C [III-77],10 to 1000
4,C=CC(=O)N1CCCC(N2CC(C#Cc3c(-c4ccc(Oc5ccccc5)cc4)c4c(N)ncnc4n3C)C2)CC1 (stereo not shown) [III-56],10 to 1000
5,C=CC(=O)N1CCC(N2CC(C#Cc3c(-c4ccc(Oc5ccccc5)cc4)c4c(N)ncnc4n3[C@H]3CCOC3)C2)CC1 [III-63],≤ 10
6,C=CC(=O)N(C)CC(=O)N1CCC(C#Cc2c(-c3ccc(Oc4ccccc4)cc3)c3c(N)ncnc3n2C)CC1 [III-43],10 to 1000
7,C=CC(=O)N1CCC(N2CC(C#Cc3c(-c4ccc(Oc5ccccn5)c(OC)c4)c4c(N)ncnc4n3C)C2)C(S(C)(=O)=O)C1 (stereo not shown) [III-87],10 to 1000
8,C=CC(=O)NC1CCN(C2CC(C#Cc3c(-c4ccc(Oc5ccccc5)cc4)c4c(N)ncnc4n3C)C2)CC1 (stereo not shown) [III-51],10 to 1000
9,C=CC(=O)NCC#Cc1c(-c2ccc(Oc3ncccn3)cc2)c2c(N)ncnc2n1C [III-95],1000 to 10000
10,CN(C)C/C=C/C(=O)N1CCC(C#Cc2c(-c3ccc(Oc4ccccc4)cc3)c3c(N)ncnc3n2C2CCOC2)C1 (stereo not shown) [III-18],10 to 1000
11,C=CC(=O)N1CCC(O)(C#Cc2c(-c3ccc(Oc4ccccc4)c(Cl)c3)c3c(N)ncnc3n2C)CC1 [III-59],10 to 1000
12,C=CC(=O)N1CCC(C#Cc2c(-c3ccc(OCC4CCCC4)cc3)c3c(N)ncnc3n2C(C)C)CC1 [Example I-16],10 to 1000
13,C=CC(=O)N1CCC(N2CC(C#Cc3c(-c4ccc(Oc5ccccc5)cc4)c4c(N)ncnc4n3C)C2)C(C)C1 (stereo not shown) [III-49],10 to 1000
14,C=CC(=O)N1CCC(O)(C#Cc2c(-c3ccc(Oc4ccccc4)cc3)c3c(N)ncnc3n2C)C[C@H]1C (stereo partly shown) [III-48],10 to 1000
15,"C=CC(=O)N1CCC(C#Cc2c(-c3ccc(Oc4ccccc4)cc3)c3c(N)ncnc3n2[C@@H](C)CO)CC1 (single isomer, unassigned) [Example I-26]",10 to 1000
16,C=C(C)C(=O)N1CCC(C#Cc2c(-c3ccc(Oc4ccccc4)cc3)c3c(N)ncnc3n2[C@H]2CCOC2)CC1 [III-37],10 to 1000
17,"CC(C)n1c(C#CC2CCC(N)CC2)c(-c2ccc(Oc3ccccc3)cc2)c2c(N)ncnc21 (stereo not shown) [II-151, 6-((4-aminocyclohexyl)ethynyl)-7-isopropyl-5-(4-phenoxyphenyl)-7H-pyrrolo[2,3-d]pyrimidin-4-amine]",≤ 10
18,C=CC(=O)N1CCC(C#Cc2c(-c3ccc(Oc4ccccc4)cc3)c3c(N)ncnc3n2C(C)C(=O)O)CC1 (stereo not shown) [Example I-34],1000 to 10000
